ChEMBL document CHEMBL1140740, “Discovery of benzisoxazoles as potent inhibitors of chaperone heat shock protein 90” (J Med Chem, 2008)
pIC50: −log10 of the molar value. ≈ marks a conversion by molar mass, not a printed value. Calls of active or inactive are those of the source. The calls are words filed in the database; no cut-off is given here.

Columns and labels:
[1] = molecular target: Heat shock protein HSP 90-alpha (Homo sapiens, UniProt P07900)
Description: Inhibition of human Hsp90-alpha by fluorescence polarization assay

HCT-116 [2] = test: Antiproliferation activity against human HCT116 cells; type: functional, cell-based
LNCaP [3] = test: Antiproliferation activity against human LnCap cells; type: functional, cell-based
Activin receptor type-2B = Activin receptor type-2B (Homo sapiens, UniProt Q13705); test: Inhibition of ActR2B
Activin receptor type-2B, sequence (Q13705 whole entry): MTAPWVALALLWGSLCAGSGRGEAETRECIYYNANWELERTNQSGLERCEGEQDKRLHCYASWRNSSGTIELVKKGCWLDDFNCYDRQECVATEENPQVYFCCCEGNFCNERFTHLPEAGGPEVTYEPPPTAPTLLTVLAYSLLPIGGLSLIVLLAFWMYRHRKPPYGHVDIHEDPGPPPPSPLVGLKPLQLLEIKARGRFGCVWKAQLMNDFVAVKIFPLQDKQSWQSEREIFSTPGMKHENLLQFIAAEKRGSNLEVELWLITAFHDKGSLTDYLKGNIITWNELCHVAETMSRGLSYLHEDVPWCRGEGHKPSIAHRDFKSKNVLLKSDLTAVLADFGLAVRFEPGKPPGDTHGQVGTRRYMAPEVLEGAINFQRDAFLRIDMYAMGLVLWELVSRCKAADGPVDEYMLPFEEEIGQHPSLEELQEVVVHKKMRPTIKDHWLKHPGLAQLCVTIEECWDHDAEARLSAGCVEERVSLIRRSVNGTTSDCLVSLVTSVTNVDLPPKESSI

[4] = molecular target: T1, Protein kinase C epsilon type (Homo sapiens, UniProt Q02156); test: Inhibition of PKC epsilon
T1 sequence (Q02156 whole entry): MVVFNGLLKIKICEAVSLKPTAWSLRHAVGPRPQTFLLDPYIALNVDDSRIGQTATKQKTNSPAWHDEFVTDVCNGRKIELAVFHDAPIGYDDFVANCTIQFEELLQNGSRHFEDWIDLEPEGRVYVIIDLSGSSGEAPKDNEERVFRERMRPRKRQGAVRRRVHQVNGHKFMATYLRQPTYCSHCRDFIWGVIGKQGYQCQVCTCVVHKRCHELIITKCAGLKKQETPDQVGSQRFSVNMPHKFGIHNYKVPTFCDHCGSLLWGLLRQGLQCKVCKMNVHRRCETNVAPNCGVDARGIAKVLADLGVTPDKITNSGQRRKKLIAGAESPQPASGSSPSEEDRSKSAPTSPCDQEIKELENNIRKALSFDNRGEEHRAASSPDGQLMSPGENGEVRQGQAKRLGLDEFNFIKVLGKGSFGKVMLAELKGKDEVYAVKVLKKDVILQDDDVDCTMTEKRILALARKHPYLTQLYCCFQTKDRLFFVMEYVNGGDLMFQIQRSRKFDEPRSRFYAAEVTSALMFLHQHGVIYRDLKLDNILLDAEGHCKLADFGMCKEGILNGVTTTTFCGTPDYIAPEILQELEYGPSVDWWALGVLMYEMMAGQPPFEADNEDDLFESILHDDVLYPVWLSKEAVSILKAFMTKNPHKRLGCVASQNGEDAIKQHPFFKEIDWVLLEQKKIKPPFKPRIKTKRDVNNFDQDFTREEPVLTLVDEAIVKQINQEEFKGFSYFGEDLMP

SK-BR-3 [5] = test: Antiproliferation activity against human SKBR3 cells; type: functional, cell-based
K562 [6] = test: Upregulation of Hsp70 in K562 cells; type: functional, cell-based; conditions: Homo sapiens
K562 [7] = test: Degradation of actin in human K562 cells; type: functional, cell-based
K562 [8] = test: Downregulation of Bcr-Abl in human K562 cells; type: functional, cell-based
[9] = molecular target: Phosphatidylinositol 4,5-bisphosphate 3-kinase catalytic subunit alpha isoform (Homo sapiens, UniProt P42336); test: Inhibition of P13K alpha
Phosphatidylinositol 4,5-bisphosphate 3-kinase catalytic subunit alpha isoform, sequence (P42336 whole entry, canonical isoform): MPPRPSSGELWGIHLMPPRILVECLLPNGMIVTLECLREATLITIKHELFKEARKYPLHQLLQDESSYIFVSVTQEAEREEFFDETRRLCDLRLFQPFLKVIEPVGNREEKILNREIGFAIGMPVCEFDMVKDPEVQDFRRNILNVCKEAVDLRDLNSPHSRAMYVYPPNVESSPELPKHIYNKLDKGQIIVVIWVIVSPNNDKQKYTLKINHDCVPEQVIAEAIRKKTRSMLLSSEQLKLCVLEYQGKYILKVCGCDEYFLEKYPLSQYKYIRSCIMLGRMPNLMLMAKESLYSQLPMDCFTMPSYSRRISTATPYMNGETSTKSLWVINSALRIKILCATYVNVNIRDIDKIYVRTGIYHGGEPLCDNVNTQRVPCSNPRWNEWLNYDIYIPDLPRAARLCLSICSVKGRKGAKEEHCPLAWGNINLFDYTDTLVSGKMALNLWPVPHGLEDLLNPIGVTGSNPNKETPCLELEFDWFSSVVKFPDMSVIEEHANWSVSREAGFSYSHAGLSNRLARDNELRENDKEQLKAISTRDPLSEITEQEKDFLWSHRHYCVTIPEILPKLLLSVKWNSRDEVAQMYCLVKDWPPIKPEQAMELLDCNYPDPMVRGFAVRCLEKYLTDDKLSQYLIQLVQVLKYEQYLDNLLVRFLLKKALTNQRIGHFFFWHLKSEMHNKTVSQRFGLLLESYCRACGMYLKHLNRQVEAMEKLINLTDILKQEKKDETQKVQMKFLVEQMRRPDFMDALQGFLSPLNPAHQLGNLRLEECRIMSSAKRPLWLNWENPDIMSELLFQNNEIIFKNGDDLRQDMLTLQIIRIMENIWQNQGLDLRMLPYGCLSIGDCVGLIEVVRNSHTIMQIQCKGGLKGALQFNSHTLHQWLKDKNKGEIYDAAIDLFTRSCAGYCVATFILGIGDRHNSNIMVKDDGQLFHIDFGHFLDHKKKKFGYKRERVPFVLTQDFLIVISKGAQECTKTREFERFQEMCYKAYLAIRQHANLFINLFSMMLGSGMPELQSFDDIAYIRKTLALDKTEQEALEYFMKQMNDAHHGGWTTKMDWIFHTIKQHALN

HCT-116 [10] = test: Antiproliferation activity against human HCT116 cells in presence of geldanamycin; type: functional, cell-based
[11] = Antiproliferation activity against human H157 cells; type: functional, cell-based; conditions: NCI-H157
DU-145 = test: Antiproliferation activity against human DU145 cells; type: functional, cell-based
[12] = molecular target: MAP kinase-activated protein kinase 2 (Homo sapiens, UniProt P49137); test: Inhibition of MK2
MAP kinase-activated protein kinase 2, sequence (P49137 whole entry): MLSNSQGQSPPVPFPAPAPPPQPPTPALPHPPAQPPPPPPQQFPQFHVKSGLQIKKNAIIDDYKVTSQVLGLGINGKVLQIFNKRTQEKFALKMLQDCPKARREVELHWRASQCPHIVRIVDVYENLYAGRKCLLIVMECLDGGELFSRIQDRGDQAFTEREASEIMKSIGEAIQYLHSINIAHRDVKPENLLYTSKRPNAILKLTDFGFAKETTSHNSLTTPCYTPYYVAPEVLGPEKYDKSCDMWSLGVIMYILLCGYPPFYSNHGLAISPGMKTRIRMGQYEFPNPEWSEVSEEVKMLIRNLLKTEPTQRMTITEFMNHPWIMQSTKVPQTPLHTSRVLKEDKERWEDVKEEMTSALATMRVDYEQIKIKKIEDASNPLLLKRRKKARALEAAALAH

SK-BR-3 [13] = test: Degradation of HER2 in human SKBR3 cells; type: functional, cell-based
[14] = molecular target: T2, Inhibitor of nuclear factor kappa-B kinase subunit beta (Homo sapiens, UniProt O14920); test: Inhibition of IKK2
T2 sequence (O14920 whole entry): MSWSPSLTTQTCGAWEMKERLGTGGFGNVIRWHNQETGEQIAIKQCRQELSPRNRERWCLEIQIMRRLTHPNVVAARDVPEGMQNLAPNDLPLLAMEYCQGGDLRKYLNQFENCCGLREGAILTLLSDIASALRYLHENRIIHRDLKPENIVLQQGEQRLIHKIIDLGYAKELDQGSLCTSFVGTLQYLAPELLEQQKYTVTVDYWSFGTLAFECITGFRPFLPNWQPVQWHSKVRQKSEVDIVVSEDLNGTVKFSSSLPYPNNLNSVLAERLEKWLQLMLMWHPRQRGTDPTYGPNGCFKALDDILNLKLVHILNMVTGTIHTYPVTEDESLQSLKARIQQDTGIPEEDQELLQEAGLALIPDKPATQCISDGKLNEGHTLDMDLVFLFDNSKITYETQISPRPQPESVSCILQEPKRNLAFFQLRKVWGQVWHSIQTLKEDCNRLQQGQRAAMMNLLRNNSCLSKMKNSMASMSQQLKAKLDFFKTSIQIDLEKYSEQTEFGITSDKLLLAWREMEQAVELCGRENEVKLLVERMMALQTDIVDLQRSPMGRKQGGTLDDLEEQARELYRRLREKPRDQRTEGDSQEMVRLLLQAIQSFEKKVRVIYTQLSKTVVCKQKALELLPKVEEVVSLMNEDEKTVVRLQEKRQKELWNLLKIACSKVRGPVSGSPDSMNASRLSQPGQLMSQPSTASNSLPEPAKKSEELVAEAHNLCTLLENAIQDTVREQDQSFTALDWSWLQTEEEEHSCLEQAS

[15] = molecular target: Protein kinase C theta type (Homo sapiens, UniProt Q04759); test: Inhibition of PKC theta
Protein kinase C theta type, sequence (Q04759 whole entry): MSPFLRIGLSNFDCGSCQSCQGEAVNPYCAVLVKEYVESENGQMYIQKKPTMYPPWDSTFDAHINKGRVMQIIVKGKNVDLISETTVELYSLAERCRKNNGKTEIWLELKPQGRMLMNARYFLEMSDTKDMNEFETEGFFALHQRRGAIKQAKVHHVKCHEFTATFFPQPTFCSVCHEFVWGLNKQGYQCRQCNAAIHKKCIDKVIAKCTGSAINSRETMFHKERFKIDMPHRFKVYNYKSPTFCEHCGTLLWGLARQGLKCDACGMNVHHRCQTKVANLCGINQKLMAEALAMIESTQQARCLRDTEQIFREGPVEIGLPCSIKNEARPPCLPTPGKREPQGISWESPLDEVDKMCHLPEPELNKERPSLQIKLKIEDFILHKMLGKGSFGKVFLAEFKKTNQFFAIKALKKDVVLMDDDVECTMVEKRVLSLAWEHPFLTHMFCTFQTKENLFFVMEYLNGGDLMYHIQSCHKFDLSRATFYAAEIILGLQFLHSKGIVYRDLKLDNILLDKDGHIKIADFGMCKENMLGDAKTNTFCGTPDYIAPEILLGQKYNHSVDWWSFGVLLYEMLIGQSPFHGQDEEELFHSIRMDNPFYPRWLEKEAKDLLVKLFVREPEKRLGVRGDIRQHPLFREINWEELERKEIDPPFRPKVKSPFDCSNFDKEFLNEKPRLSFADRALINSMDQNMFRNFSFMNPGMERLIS

[16] = molecular target: Serine/threonine-protein kinase B-raf (Homo sapiens, UniProt P15056); test: Inhibition of B-Raf
Serine/threonine-protein kinase B-raf, sequence (P15056 whole entry): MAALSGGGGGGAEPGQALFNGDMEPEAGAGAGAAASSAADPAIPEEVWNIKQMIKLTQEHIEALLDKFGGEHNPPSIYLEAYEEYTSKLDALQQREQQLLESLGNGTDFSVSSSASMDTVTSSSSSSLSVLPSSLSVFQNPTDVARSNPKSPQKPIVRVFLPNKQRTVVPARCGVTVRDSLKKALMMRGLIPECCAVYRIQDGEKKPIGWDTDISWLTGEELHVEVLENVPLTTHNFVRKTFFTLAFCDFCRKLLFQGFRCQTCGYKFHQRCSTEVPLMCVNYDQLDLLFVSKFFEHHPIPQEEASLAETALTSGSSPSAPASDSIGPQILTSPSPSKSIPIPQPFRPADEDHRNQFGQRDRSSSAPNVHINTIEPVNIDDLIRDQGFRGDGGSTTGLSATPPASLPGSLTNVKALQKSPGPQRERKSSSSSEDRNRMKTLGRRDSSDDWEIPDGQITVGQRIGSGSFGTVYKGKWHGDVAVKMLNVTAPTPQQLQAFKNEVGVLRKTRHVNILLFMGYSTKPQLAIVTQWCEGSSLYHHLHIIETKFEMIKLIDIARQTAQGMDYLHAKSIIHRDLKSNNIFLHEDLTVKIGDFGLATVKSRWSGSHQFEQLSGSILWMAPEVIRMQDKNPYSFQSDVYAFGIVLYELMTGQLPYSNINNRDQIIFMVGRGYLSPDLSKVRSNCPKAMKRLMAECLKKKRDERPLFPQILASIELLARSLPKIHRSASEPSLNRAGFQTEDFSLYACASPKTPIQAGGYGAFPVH

LNCaP [17] = test: Androgen receptor degradation in human LnCAP cells; type: functional, cell-based
[18] = molecular target: Serine/threonine-protein kinase mTOR (Homo sapiens, UniProt P42345); test: Inhibition of mTOR
[19] = Aqueous solubility at pH 7.4; type: physicochemical
HCT-116 [20] = test: Antiproliferation activity against human HCT116 cells

Q: With `CN1CCN(c2ccc3onc(-c4cc(Cl)c(O)cc4O)c3c2)CC1` as the molecule, how does the pIC50 [1] read?
A: The pIC50 was 6.10.

Q: What about the pIC50 (HCT-116 [2]) of the same molecule?
A: The pIC50 was 5.03.

Q: With `COc1cc(OC)c(-c2noc3ccc(NCCN4CCOCC4)cc23)cc1Cl` as the molecule, how does the pIC50 [1] read?
A: The pIC50 was under 4.70.

Q: With `Oc1ccc2c(-c3cc(Cl)c(O)cc3O)noc2c1` as the molecule, how does the pIC50 [1] read?
A: The pIC50 was 7.22.

Q: With `COc1ccc2c(-c3cc(Cl)c(OC)cc3OC)noc2c1` as the molecule, how does the pIC50 [1] read?
A: Its pIC50 is under 4.70.

Q: With `Oc1cc(O)c(-c2noc3ccc(NCCN4CCOCC4)cc23)cc1Cl` as the molecule, how does the pIC50 (LNCaP [3]) read?
A: The pIC50 was 6.77.

Q: What about the pIC50 (Activin receptor type-2B) of the same molecule?
A: The pIC50 was under 4.70.

Q: What about the pIC50 [4] of the same molecule?
A: The pIC50 was under 4.70.

Q: What about the pIC50 (SK-BR-3 [5]) of the same molecule?
A: The pIC50 was 6.43.

Q: And the Activity (K562 [6])?
A: The Activity was “Active”.

Q: And the Activity (K562 [7])?
A: The Activity was “inactive”.

Q: What about the Activity (K562 [8]) of the same molecule?
A: The Activity was “Active”.

Q: And the pIC50 [9]?
A: The pIC50 was under 4.70.

Q: And the pIC50 (HCT-116 [10])?
A: The pIC50 was 7.30.

Q: And the pIC50 [11]?
A: Its pIC50 is 6.64.

Q: And the pIC50 (DU-145)?
A: The pIC50 was 6.54.

Q: And the pIC50 [12]?
A: Its pIC50 is under 4.70.

Q: And the pIC50 (SK-BR-3 [13])?
A: Its pIC50 is 6.48.

Q: What about the pIC50 [14] of the same molecule?
A: The pIC50 was under 4.70.

Q: What about the pIC50 (HCT-116 [2]) of the same molecule?
A: The pIC50 was 6.55.

Q: What about the pIC50 [15] of the same molecule?
A: The pIC50 was under 4.70.

Q: And the pIC50 [16]?
A: The pIC50 was under 4.70.

Q: And the pIC50 (LNCaP [17])?
A: The pIC50 was 6.48.

Q: What about the pIC50 [18] of the same molecule?
A: Its pIC50 is under 4.70.

Q: With `Oc1ccc(-c2noc3cc(O)ccc23)c(O)c1` as the molecule, how does the pIC50 [1] read?
A: Its pIC50 is 4.82.

Q: With `Oc1cc(O)c(-c2noc3ccc(NCCN4CCOCC4)cc23)cc1Br` as the molecule, how does the pIC50 [1] read?
A: The pIC50 was 7.40.

Q: For `Oc1ccc2c(-c3cc(Br)c(O)cc3O)noc2c1`, which solubility [19] is on record?
A: The solubility was 4 µg/mL (≈ 12.4 µM).

Q: What about the pIC50 (SK-BR-3 [13]) of the same molecule?
A: The pIC50 was at most 4.70.

Q: And the pIC50 (HCT-116 [20])?
A: The pIC50 was at most 4.70.
